Experimental findings from patent US20040053309A1, “Proteins, genes and their use for diagnosis and treatment of kidney response” (priority 2000, published 2004) are described below.

For one series, the system named is rats. Briefly: Urine biochemistry parameters in Gentamicin-treated rats. In kind it is in vivo, rat. Particulars: 60 mg/kg/day. The method, then: (§1) Gentamicin, a known kidney toxin, was used to treat rats at a range of doses known to produce varying degrees of bistopathologically evident kidney response. […] The rat groups included 10 male rats per treated group, and 20 male rats in the untreated (control) group. Blood samples from rats treated at 40 mg/kg/day after 8 days were taken for proteome analysis, and kidney cortex tissue samples from rats treated at 0.1, 1.0, 10, and 40 mg/kg/day after 8 and 22 days for each group were taken for proteome analysis. Kidney cortex tissue samples were also prepared for histologic examination according to standard tissue preparation protocols.
(§2) At 60 mg/kg/day there were changes in urine biochemistry parameters (raised NAG (N-acetyl-beta-D-glucosaminidase), GGT (gamma-glutamyl-transpeptidase) and urine volume, depressed specific gravity), consistent with kidney damage.

Series [1] concerns proximal convoluted tubule epithelium of the kidney. Put plainly: Histologic examination of kidney cortex tissue of Gentamicin-treated rats. In kind it is in vivo, rat. On the procedure:
as §1, §2

As to Gentamicin, in the series on rats, the “urine GGT (gamma-glutamyl-transpeptidase)” value is “raised”, the “urine NAG (N-acetyl-beta-D-glucosaminidase)” value is “raised” and the urine specific gravity result is reported as “depressed”. Further, the “histologic examination of kidney” value in series [1] (60 mg/kg) is “single cell necrosis and loss of brush border of the proximal convoluted tubule epithelium of the kidney”. For the same substance, the “histologic finding after withdrawal of treatment” value in series [1] (seven days after the withdrawal of treatment) is recorded as “evidence of cortical tubular regeneration”.
